Converted amounts (≈) assume the structure as drawn.
What was measured:
Type in all cases: functional
[1] = test system: Streptococcus pyogenes; experiment: Antibacterial activity against erythromycin-resistant Streptococcus pyogenes 09Q149 by broth microdilution method
[2] = test system: Streptococcus pyogenes; experiment: Antibacterial activity against erythromycin-sensitive Streptococcus pyogenes 09U070 by broth microdilution method
[3] = test system: Streptococcus pneumoniae; experiment: Antibacterial activity against erythromycin-resistant Streptococcus pneumoniae 09E427 by broth microdilution method
[4] = test system: Streptococcus pneumoniae; experiment: Antibacterial activity against erythromycin-resistant Streptococcus pneumoniae 09D016 by broth microdilution method
[5] = test system: Streptococcus pneumoniae; experiment: Antibacterial activity against erythromycin-sensitive Streptococcus pneumoniae 09H071 by broth microdilution method
[6] = test system: Streptococcus pneumoniae; experiment: Antibacterial activity against erythromycin-sensitive Streptococcus pneumoniae 09H065 by broth microdilution method
[7] = test system: Streptococcus pneumoniae; experiment: Antibacterial activity against erythromycin-sensitive Streptococcus pneumoniae ATCC 49619 by broth microdilution method
[8] = test system: Staphylococcus epidermidis; experiment: Antibacterial activity against methicillin-resistant Staphylococcus epidermidis 09M124 by broth microdilution method
[9] = test system: Staphylococcus epidermidis; experiment: Antibacterial activity against methicillin-resistant Staphylococcus epidermidis 09R476 by broth microdilution method
[10] = test system: Staphylococcus epidermidis; experiment: Antibacterial activity against methicillin-sensitive Staphylococcus epidermidis 09G291 by broth microdilution method
[11] = test system: Staphylococcus epidermidis; experiment: Antibacterial activity against methicillin-sensitive Staphylococcus epidermidis 09A011 by broth microdilution method
[12] = test system: Staphylococcus aureus; experiment: Antibacterial activity against methicillin-resistant Staphylococcus aureus 09N120 by broth microdilution method
[13] = test system: Staphylococcus aureus; experiment: Antibacterial activity against methicillin-resistant Staphylococcus aureus 09L075 by broth microdilution method
[14] = test system: Staphylococcus aureus; experiment: Antibacterial activity against methicillin-sensitive Staphylococcus aureus 09U035 by broth microdilution method
[15] = test system: Staphylococcus aureus; experiment: Antibacterial activity against methicillin-sensitive Staphylococcus aureus 09O077 by broth microdilution method
[16] = test system: Staphylococcus aureus; experiment: Antibacterial activity against methicillin-sensitive Staphylococcus aureus ATCC 29213 by broth microdilution method

`CC[C@H]1OC(=O)[C@H](C)[C@@H](O[C@H]2C[C@@](C)(OC)[C@@H](O)[C@H](C)O2)[C@H](C)[C@@H](O[C@@H]2O[C@H](C)C[C@H](N(C)C)[C@H]2O)[C@](C)(O)C[C@@H](C)C(=O)[C@H](C)[C@@H](O)[C@]1(C)O` [ERYTHROMYCIN] showed an MIC [1] of over 256 mg/L, an MIC [2] of 0.031 mg/L (≈ 0.0422 µM) and an MIC [3] of over 256 mg/L. It also gave an MIC [4] of over 256 mg/L, an MIC [5] of 0.062 mg/L (≈ 0.0845 µM) and an MIC [6] of 0.062 mg/L (≈ 0.0845 µM). The MIC [7] was 0.062 mg/L (≈ 0.0845 µM), the MIC [8] was 128 mg/L (≈ 174 µM) and the MIC [9] was 0.125 mg/L (≈ 0.17 µM). It also gave an MIC [10] of over 256 mg/L, an MIC [11] of 0.062 mg/L (≈ 0.0845 µM) and an MIC [12] of over 256 mg/L. For the same compound, the MIC [13] was 0.5 mg/L (≈ 0.681 µM), the MIC [14] was over 256 mg/L and the MIC [15] was over 256 mg/L. It also gave an MIC [16] of 0.25 mg/L (≈ 0.341 µM).
Work on `CC[C@H]1OC(=O)[C@H](C)C(=O)[C@H](C)[C@@H](O[C@@H]2O[C@H](C)[C@@H](OCc3ccccc3)[C@H](N(C)C)[C@H]2O)[C@](C)(OC)C[C@@H](C)C(=O)[C@H](C)[C@@H]2OC(=O)O[C@]12C` yielded an MIC [1] of over 32 mg/L, an MIC [2] of over 32 mg/L and an MIC [3] of over 32 mg/L. The MIC [4] was over 32 mg/L, the MIC [5] was 4 mg/L (≈ 5.56 µM) and the MIC [6] was 4 mg/L (≈ 5.56 µM). It also gave an MIC [7] of 4 mg/L (≈ 5.56 µM), an MIC [8] of 32 mg/L (≈ 44.5 µM) and an MIC [9] of 32 mg/L (≈ 44.5 µM). For the same compound, the MIC [10] was over 32 mg/L, the MIC [11] was 16 mg/L (≈ 22.2 µM) and the MIC [12] was over 32 mg/L. The MIC [13] was over 32 mg/L, the MIC [14] was over 32 mg/L and the MIC [15] was over 32 mg/L. For the same compound, the MIC [16] was 32 mg/L (≈ 44.5 µM).
In the case of `C=CCO[C@H]1[C@H](N(C)C)[C@@H](O)[C@H](O[C@@H]2[C@@H](C)C(=O)[C@@H](C)C(=O)O[C@H](CC)[C@@]3(C)OC(=O)O[C@H]3[C@@H](C)C(=O)[C@H](C)C[C@@]2(C)OC)O[C@@H]1C`, the MIC [1] is reported as over 8 mg/L, the MIC [2] is reported as over 8 mg/L and the MIC [3] is reported as over 8 mg/L. For the same compound, the MIC [4] was over 8 mg/L, the MIC [5] was 1 mg/L (≈ 1.49 µM) and the MIC [6] was 0.5 mg/L (≈ 0.746 µM). It also gave an MIC [7] of 0.5 mg/L (≈ 0.746 µM), an MIC [8] of 4 mg/L (≈ 5.97 µM) and an MIC [9] of 4 mg/L (≈ 5.97 µM). For the same compound, the MIC [10] was over 8 mg/L, the MIC [11] was 2 mg/L (≈ 2.99 µM) and the MIC [12] was over 8 mg/L. For the same compound, the MIC [13] was 8 mg/L (≈ 11.9 µM), the MIC [14] was over 8 mg/L and the MIC [15] was over 8 mg/L. The MIC [16] was 4 mg/L (≈ 5.97 µM).
For `CC[C@H]1OC(=O)[C@H](C)C(=O)[C@H](C)[C@@H](O[C@@H]2O[C@H](C)C[C@H](N(C)C)[C@H]2O)[C@](C)(OC)C[C@@H](C)C(=O)[C@H](C)[C@H]2N(CCCCn3cnc(-c4cccnc4)c3)C(=O)O[C@]12C` [TELITHROMYCIN], the MIC [1] was 2 mg/L (≈ 2.46 µM), the MIC [2] was 0.016 mg/L (≈ 0.0197 µM) and the MIC [3] was 0.25 mg/L (≈ 0.308 µM). The MIC [4] was 0.125 mg/L (≈ 0.154 µM), the MIC [5] was 0.031 mg/L (≈ 0.0382 µM) and the MIC [6] was 0.031 mg/L (≈ 0.0382 µM). For the same compound, the MIC [7] was 0.031 mg/L (≈ 0.0382 µM), the MIC [8] was 0.25 mg/L (≈ 0.308 µM) and the MIC [9] was 0.125 mg/L (≈ 0.154 µM). The MIC [10] was over 64 mg/L, the MIC [11] was 0.125 mg/L (≈ 0.154 µM) and the MIC [12] was over 64 mg/L. The MIC [13] was 0.125 mg/L (≈ 0.154 µM), the MIC [14] was over 64 mg/L and the MIC [15] was over 64 mg/L. For the same compound, the MIC [16] was 0.125 mg/L (≈ 0.154 µM).
With `CC[C@H]1OC(=O)[C@H](C)[C@@H](O[C@H]2C[C@@](C)(OC)[C@@H](O)[C@H](C)O2)[C@H](C)[C@@H](O[C@@H]2O[C@H](C)C[C@H](N(C)C)[C@H]2O)[C@](C)(OC)C[C@@H](C)C(=O)[C@H](C)[C@@H](O)[C@]1(C)O` [CLARITHROMYCIN] the MIC [1] was over 32 mg/L, the MIC [2] was 0.031 mg/L (≈ 0.0414 µM) and the MIC [3] was over 32 mg/L. For the same compound, the MIC [4] was over 32 mg/L, the MIC [5] was 0.062 mg/L (≈ 0.0829 µM) and the MIC [6] was 0.062 mg/L (≈ 0.0829 µM). For the same compound, the MIC [7] was 0.125 mg/L (≈ 0.167 µM), the MIC [8] was 32 mg/L (≈ 42.8 µM) and the MIC [9] was 0.25 mg/L (≈ 0.334 µM). The MIC [10] was over 32 mg/L, the MIC [11] was 0.125 mg/L (≈ 0.167 µM) and the MIC [12] was over 32 mg/L. It also gave an MIC [13] of 2 mg/L (≈ 2.67 µM), an MIC [14] of over 32 mg/L and an MIC [15] of over 32 mg/L. The MIC [16] was 0.25 mg/L (≈ 0.334 µM).
Work on `CC[C@H]1OC(=O)[C@H](C)C(=O)[C@H](C)[C@@H](O[C@@H]2O[C@H](C)[C@@H](O)[C@H](N(C)C)[C@H]2O)[C@](C)(OC)C[C@@H](C)C(=O)[C@H](C)[C@@H]2OC(=O)O[C@]12C` yielded an MIC [1] of over 32 mg/L, an MIC [2] of at most 0.031 mg/L and an MIC [3] of over 32 mg/L. It also gave an MIC [4] of over 32 mg/L, an MIC [5] of at most 0.031 mg/L and an MIC [6] of 0.062 mg/L (≈ 0.0985 µM). The MIC [7] was 0.062 mg/L (≈ 0.0985 µM), the MIC [8] was 0.25 mg/L (≈ 0.397 µM) and the MIC [9] was 0.25 mg/L (≈ 0.397 µM). The MIC [10] was over 32 mg/L, the MIC [11] was 0.125 mg/L (≈ 0.198 µM) and the MIC [12] was over 32 mg/L. The MIC [13] was 0.125 mg/L (≈ 0.198 µM), the MIC [14] was over 32 mg/L and the MIC [15] was over 32 mg/L. For the same compound, the MIC [16] was 0.125 mg/L (≈ 0.198 µM).
